What is called IC50 is the concentration that inhibits the measured activity by half. Low values mean inhibition by little substance, high ones a need for much substance. As usually defined, the half-life is the time in which the quantity being followed falls by half. Read a low half-life as rapid decline.

Results on 23 molecules are retold here after patent US8951993B2, “Phosphorus containing compounds as protein kinase inhibitors” (Jiangsu Hansoh Pharmaceutical Co., Ltd., priority 2011, dated 2015).

The target in one series is ALK (Homo sapiens, UniProt Q9UM73). In words: ALK enzyme activity assay (HTRF KinEASE). The class given is biochemical. More on the design: purchased Millipore Company (Billerica, Mass., USA). The note with it: ATP 25 μM, 30° C. 30 minutes. As for the experimental part:
ALK Enzyme Activity Assay:
ALK kinase was purchased from Millipore Company (Billerica, Mass., USA). HTRF®KinEASET™ was purchased from Cisbio Company (Bedford, Mass., USA). The assay was conducted according to the procedure provided in the assay kit. In brief, incubation was carried out in the kinase buffer containing ALK (0.3 ng/μL), ATP (25 μM), TK substrate-biotin (10 μM), DTT (1 mM), MgCl2 (5 mM), MnCl2 (5 mM) in the presence of the tested articles at various concentrations in 384-well plate at 30° C. for 30 minutes. The reaction was stopped by addition of Sa-XL665 in EDTA solution, and the phosphorylated substrate was detected with a proprietary phospho-specific monoclonal antibody labeled with Eu^3+-Cryptate and a proprietary biotinylated kinase substrate detected using XL665 labeled streptavidin. IC50 value was calculated using median-effect method (Chou 2006).

Another series deals with H2228. The series is described as follows: Cell proliferation assay (MTS / BrdU), H2228. It counts as cell-based. Conditions: Homo sapiens, NCI-H2228; 72 hours, 2% FBS. As for the experimental part: (§1) Karpas299 and SU-DHL-1 cells were purchased from Deutsche Sammlung von Mikroorganismen and Zellkulturen (Germany). H2228 was purchased from American Type Culture Collection (USA). All cells were cultured in the recommended medium and serum concentration. Cells were maintained at 37° C. in a humidified atmosphere with 5% CO2. For ALK kinase phosphorylation, cells were seeded in 96-well plates overnight in medium supplemented with 10% fetal bovine serum […]. After 24 hours, the medium was removed and cells were cultured in serum-free medium at 37° C. in the presence of various concentrations of the test articles for 1 hour. After incubation with the tested articles, cells were washed once with HBSS supplemented with 1 mM Na3VO4 and protein lysates were generated. Subsequently, phosphorylation of ALK was assessed by a sandwich ELISA method using an immobilized anti-total-ALK antibody and an anti-phospho-ALK antibody (pY1604) as a detection antibody. IC50 value was calculated using median-effect method. (Chou 2006).
(§2) For cell proliferation assay, cells were seeded in 96-well pates at low density at 37° C. in medium supplemented with 10% FBS and after 24 hours were switched to low serum medium (2% FBS). Cells were further incubated in the presence of the test articles at various concentrations at 37° C. for 72 hours. Two assays were employed to determine the relative cell numbers. One is a 3-(4,5-dimethylthiazol-2-yl)-5-(3-carboxymethoxyphenyl)-2-(4-sulfophenyl)-2H-tetrazolium (MTS) assay using a CellTiter 96® Aqueous Non-Radioactive Cell Proliferation kit (Promega), and the other is a BrdU incorporation assay using a DELFIA® Cell Proliferation Kit (Perkin Elmer). IC50 value was calculated using median-effect method (Chou 2006).

For the next series, the system named is SU-DHL-1. The series is described as follows: Cell proliferation assay (MTS / BrdU), SU-DHL-1. The class given is cell-based. Conditions: Homo sapiens, 72 hours, 2% FBS. On the procedure: as §1, §2
Series [1] in a line: Pharmacokinetic assay, intravenous and oral administration. The class given is in vivo, Sprague-Dawley rats or beagle dogs. The note with it: plasma. On the procedure: The tested articles were given to Sprague-Dawley rats or beagle dogs by intravenous and oral administration. Plasma samples were prepared from blood samples which were collected at various time points. The plasma concentrations of the tested articles were determined by specific LC-MS/MS analytical methods. Pharmacokinetic parameters were calculated with WinNonlin®.

The subject of the next series is Karpas299. In words: Cell proliferation assay (MTS / BrdU), Karpas299. The class given is cell-based. Conditions: Homo sapiens, KARPAS-299; 72 hours, 2% FBS. On the procedure:
as §1, §2

Sequence of ALK (Q9UM73 19-1620): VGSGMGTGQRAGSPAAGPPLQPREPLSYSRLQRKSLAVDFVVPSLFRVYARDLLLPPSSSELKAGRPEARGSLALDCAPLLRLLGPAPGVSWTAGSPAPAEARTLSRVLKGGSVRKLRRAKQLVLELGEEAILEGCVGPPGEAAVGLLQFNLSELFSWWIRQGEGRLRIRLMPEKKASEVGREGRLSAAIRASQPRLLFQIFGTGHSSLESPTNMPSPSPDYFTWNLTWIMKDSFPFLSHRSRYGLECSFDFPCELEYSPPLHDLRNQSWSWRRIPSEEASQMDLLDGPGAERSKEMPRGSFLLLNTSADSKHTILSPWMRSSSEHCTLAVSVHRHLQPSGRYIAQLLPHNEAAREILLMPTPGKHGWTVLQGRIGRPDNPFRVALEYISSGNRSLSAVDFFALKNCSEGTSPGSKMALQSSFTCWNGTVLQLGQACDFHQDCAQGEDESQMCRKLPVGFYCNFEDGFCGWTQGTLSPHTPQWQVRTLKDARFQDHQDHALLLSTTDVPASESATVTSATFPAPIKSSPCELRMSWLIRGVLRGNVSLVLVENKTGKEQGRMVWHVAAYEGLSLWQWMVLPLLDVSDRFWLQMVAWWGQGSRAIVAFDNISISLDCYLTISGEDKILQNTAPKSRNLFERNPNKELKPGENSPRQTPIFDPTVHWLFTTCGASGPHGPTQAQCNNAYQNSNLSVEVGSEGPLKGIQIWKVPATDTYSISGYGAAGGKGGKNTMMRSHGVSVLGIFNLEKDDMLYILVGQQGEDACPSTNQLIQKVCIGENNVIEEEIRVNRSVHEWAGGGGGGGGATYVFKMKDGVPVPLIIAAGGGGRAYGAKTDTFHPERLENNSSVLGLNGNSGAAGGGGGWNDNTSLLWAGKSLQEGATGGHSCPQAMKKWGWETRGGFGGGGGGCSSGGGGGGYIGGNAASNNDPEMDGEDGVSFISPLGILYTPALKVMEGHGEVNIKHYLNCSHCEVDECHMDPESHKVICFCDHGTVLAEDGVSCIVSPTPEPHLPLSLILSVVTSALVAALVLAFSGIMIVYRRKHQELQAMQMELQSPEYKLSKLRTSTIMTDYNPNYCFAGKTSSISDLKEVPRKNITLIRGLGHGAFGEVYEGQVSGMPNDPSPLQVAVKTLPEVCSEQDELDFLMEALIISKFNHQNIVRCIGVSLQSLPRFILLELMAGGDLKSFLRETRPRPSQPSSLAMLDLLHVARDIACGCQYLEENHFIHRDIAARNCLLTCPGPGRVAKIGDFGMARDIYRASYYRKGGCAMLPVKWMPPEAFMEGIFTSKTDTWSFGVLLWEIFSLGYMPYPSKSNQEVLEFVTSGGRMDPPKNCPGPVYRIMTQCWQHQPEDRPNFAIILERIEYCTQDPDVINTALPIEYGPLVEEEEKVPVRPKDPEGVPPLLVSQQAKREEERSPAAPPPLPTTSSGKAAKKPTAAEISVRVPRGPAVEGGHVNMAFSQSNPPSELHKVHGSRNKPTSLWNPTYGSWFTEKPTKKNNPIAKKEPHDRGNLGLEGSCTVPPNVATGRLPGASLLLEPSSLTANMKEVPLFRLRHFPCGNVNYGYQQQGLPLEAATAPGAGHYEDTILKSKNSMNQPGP

For `CC(Oc1cc(-c2cnn(CP(C)(C)=O)c2)cnc1N)c1c(Cl)ccc(F)c1Cl` (stereo not drawn) [Example 3, 3-[1-(2,6-dichloro-3-fluoro-phenyl)ethoxy]-5-[1-(dimethylphosphorylmethyl)pyrazol-4-yl]pyridin-2-amine], at ALK, the IC50 was 100 to 500 nM.

On to `CC(Oc1cc(-c2ccc(CN(CP(C)(C)=O)CP(C)(C)=O)cc2)cnc1N)c1c(Cl)ccc(F)c1Cl` (stereo not drawn) [Example 4, 5-[4-[(bis(dimethylphosphorylmethyl)amino)methyl]phenyl]-3-[1-(2,6-dichloro-3-fluoro-phenyl)ethoxy]pyridin-2-amine], for which the IC50 fell in the range of 100 to 500 nM against ALK and 1000 to 5000 nM with H2228.

Turning to `CC(Oc1cc(-c2ccc(CNCP(C)(C)=O)cc2)cnc1N)c1c(Cl)ccc(F)c1Cl` (stereo not drawn) [Example 5, 3-[1-(2,6-dichloro-3-fluoro-phenyl)ethoxy]-5-[4-[(dimethylphosphorylmethylamino)methyl]phenyl]pyridin-2-amine], the results for the IC50 against ALK, in the series on SU-DHL-1 and in the series on H2228 were 100 to 500 nM, 1000 to 5000 nM and 100 to 500 nM, respectively.

Take `CC(Oc1cc(-c2cncc(P(C)(C)=O)c2)cnc1N)c1c(Cl)ccc(F)c1Cl` (stereo not drawn) [Example 6, 3-[1-(2,6-dichloro-3-fluoro-phenyl)ethoxy]-5-(5-dimethylphosphoryl-3-pyridyl)pyridin-2-amine]: the IC50 against ALK lay in the range of 100 to 500 nM; in the series with SU-DHL-1, 1000 to 5000 nM; in the series with H2228, 100 to 500 nM.

In turn, `CC(Oc1cc(-c2ccc(COP(C)(C)=O)cc2)cnc1N)c1c(Cl)ccc(F)c1Cl` (stereo not drawn) [Example 7, 3-[1-(2,6-dichloro-3-fluoro-phenyl)ethoxy]-5-[4-(dimethylphosphoryloxymethyl)phenyl]pyridin-2-amine] came in with an IC50 on ALK of 100 to 500 nM.

Regarding `CC(Oc1cc(-c2ccc(P(C)(C)=O)c3ccccc23)cnc1N)c1c(Cl)ccc(F)c1Cl` (stereo not drawn) [Example 9, 3-[1-(2,6-dichloro-3-fluoro-phenyl)ethoxy]-5-(4-dimethylphosphoryl-1-naphthyl)pyridin-2-amine], the IC50 against ALK lay in the range of 1000 to 5000 nM.

Regarding `COc1cc(-c2cnc(N)c(OC(C)c3c(Cl)ccc(F)c3Cl)c2)c(F)cc1P(C)(C)=O` (stereo not drawn) [Example 10, 3-[1-(2,6-dichloro-3-fluoro-phenyl)ethoxy]-5-(4-dimethylphosphoryl-2-fluoro-5-methoxy-phenyl)pyridin-2-amine], the IC50 against ALK is 1000 to 5000 nM.

As for `CC(Oc1nc(-c2ccc(P(C)(C)=O)cc2)cnc1N)c1c(Cl)ccc(F)c1Cl` (stereo not drawn) [Example 11, 3-[1-(2,6-dichloro-3-fluoro-phenyl)ethoxy]-5-(4-dimethylphosphorylphenyl)pyrazin-2-amine], the IC50 against ALK and in the series on SU-DHL-1 was 100 to 500 nM in each case.

For `COc1cc(-c2cnc(N)c(OC(C)c3c(Cl)ccc(F)c3Cl)c2)ccc1P(C)(C)=O` (stereo not drawn) [Example 12, 3-[1-(2,6-dichloro-3-fluoro-phenyl)ethoxy]-5-(4-dimethylphosphoryl-3-methoxy-phenyl)pyridin-2-amine], the IC50 on ALK was < 100 nM.

Turning to `CC(Oc1cc(-c2ccc(P(C)(C)=O)cc2F)cnc1N)c1c(Cl)ccc(F)c1Cl` (stereo not drawn) [Example 13, 3-[1-(2,6-dichloro-3-fluoro-phenyl)ethoxy]-5-(4-dimethylphosphoryl-2-fluoro-phenyl)pyridin-2-amine], the IC50 is < 100 nM against ALK, 100 to 500 nM with SU-DHL-1 and < 100 nM with Karpas299. Besides, the half-life in series [1] (after oral administration in rats or dogs) is > 3 h. Moreover, in series [1] (oral administration in rats or dogs, read-out: oral bioavailabilty), the bioavailability was > 20%.

With `CC(Oc1cc(-c2ccc(P(C)(C)=O)c(F)c2)cnc1N)c1c(Cl)ccc(F)c1Cl` (stereo not drawn) [Example 14, 3-[1-(2,6-dichloro-3-fluoro-phenyl)ethoxy]-5-(4-dimethylphosphoryl-3-fluoro-phenyl)pyridin-2-amine], the IC50 against ALK and in the series on SU-DHL-1 was 1000 to 5000 nM in each case.

`CC(Oc1cc(-c2ccc(P(C)(C)=O)cc2C(F)(F)F)cnc1N)c1c(Cl)ccc(F)c1Cl` (stereo not drawn) [Example 15, 3-[1-(2,6-dichloro-3-fluoro-phenyl)ethoxy]-5-[4-dimethylphosphoryl-2-(trifluoromethyl)phenyl]pyridin-2-amine] yielded an IC50 at ALK of 500 to 1000 nM.

Take `CC(Oc1cc(-c2ccc(P(C)(C)=O)nc2)cnc1N)c1c(Cl)ccc(F)c1Cl` (stereo not drawn) [Example 16, 3-[1-(2,6-dichloro-3-fluoro-phenyl)ethoxy]-5-(6-dimethylphosphoryl-3-pyridyl)pyridin-2-amine]: the IC50 on ALK was in the range of 500 to 1000 nM; with SU-DHL-1 it was 1000 to 5000 nM.

On to `CC(Oc1cc(-c2ccc(P(C)(C)=O)cc2O)cnc1N)c1c(Cl)ccc(F)c1Cl` (stereo not drawn) [Example 17, 2-[6-amino-5-[1-(2,6-dichloro-3-fluoro-phenyl)ethoxy]-3-pyridyl]-5-dimethylphosphoryl-phenol], for which the half-maximal inhibitory concentration (IC50) was 100 to 500 nM on ALK and < 100 nM in the series with SU-DHL-1.

Consider `CC(Oc1cc(-c2ccc(P(C)(C)=O)cn2)cnc1N)c1c(Cl)ccc(F)c1Cl` (stereo not drawn) [Example 18, 3-[1-(2,6-dichloro-3-fluoro-phenyl)ethoxy]-5-(5-dimethylphosphoryl-2-pyridyl)pyridin-2-amine], for which the IC50 against ALK, with SU-DHL-1 and in the series on Karpas299 was 100 to 500 nM in each case.

In the case of `CC(Oc1cc(-c2ccc(P(C)(C)=O)cc2Cl)cnc1N)c1c(Cl)ccc(F)c1Cl` (stereo not drawn) [Example 19, 5-(2-chloro-4-dimethylphosphoryl-phenyl)-3-[1-(2,6-dichloro-3-fluoro-phenyl)ethoxy]pyridin-2-amine], the IC50 on ALK and in the series on SU-DHL-1 was 100 to 500 nM in each case.

For the molecule `CC(Oc1cc(-c2ccc(P(C)(C)=O)cc2OC(F)(F)F)cnc1N)c1c(Cl)ccc(F)c1Cl` (stereo not drawn) [Example 20, 3-[1-(2,6-dichloro-3-fluoro-phenyl)ethoxy]-5-[4-dimethylphosphoryl-2-(trifluoromethoxy)phenyl]pyridin-2-amine], the IC50 on ALK lay within 500 to 1000 nM; with SU-DHL-1, 100 to 500 nM.

`CC(Oc1cc(-c2ccc(P(C)(C)=O)cc2)cnc1N)c1cc(Cl)ccc1Cl` (stereo not drawn) [Example 21, 3-[1-(2,5-dichlorophenyl)ethoxy]-5-(4-dimethylphosphorylphenyl)pyridin-2-amine]: the figures for the IC50 against ALK and with SU-DHL-1 were 100 to 500 nM and < 100 nM, respectively.

Turning to `CC(Oc1cc(-c2ccc(P(C)(C)=O)cc2)cnc1N)c1cc(F)ccc1Cl` (stereo not drawn) [Example 22, 3-[1-(2-chloro-5-fluoro-phenyl)ethoxy]-5-(4-dimethylphosphorylphenyl)pyridin-2-amine], the values for the IC50 on ALK and with SU-DHL-1 were 100 to 500 nM and < 100 nM, respectively.

In turn, `CCOP(=O)(OCC)c1ccc(-c2cnc(N)c(OC(C)c3cc(F)ccc3Cl)c2)cc1` (stereo not drawn) [Example 26, 3-[1-2-(2-chloro-5-fluoro-phenyl)ethoxy]-5-(4-diethoxyphosphorylphenyl)pyridine-2-amine] registered an IC50 against ALK of 500 to 1000 nM.

Turning to `CC(Oc1cc(-c2ccc(P(=O)(O)O)cc2)cnc1N)c1cc(F)ccc1Cl` (stereo not drawn) [Example 27, [4-(6-amino-5-[1-(2-chloro-5-fluoro-phenyl)ethoxyl]-3-pyridyl]phenyl]phosphonic acid], the IC50 was < 100 nM against ALK and 1000 to 5000 nM in the series on SU-DHL-1.

For `CCOP(=O)(OCC)c1ccc(-c2cnc(N)c(O[C@H](C)c3c(Cl)ccc(F)c3Cl)c2)cc1` [Example 28, 3-[(1R)-1-2-(2,6-dichloro-3-fluoro-phenyl)ethoxy]-5-(4-diethoxyphosphorylphenyl)pyridine-2-amine], the IC50 was in the range of 100 to 500 nM on ALK and 1000 to 5000 nM with SU-DHL-1.

`C[C@@H](Oc1cc(-c2ccc(P(=O)(O)O)cc2)cnc1N)c1c(Cl)ccc(F)c1Cl` [Example 29, [4-(6-amino-5-[(1R)-1-(2,6-dichloro-3-fluoro-phenyl)ethoxyl]-3-pyridyl]phenyl]phosphonic acid]: the figures for the IC50 against ALK and in the series with SU-DHL-1 were < 100 nM and 1000 to 5000 nM, respectively.
